Entries after “also recorded” stand apart in the source; their conditions may differ. Where two headings read alike, the source gives them in different places.
Tests used:
[1] = test system: experimental allergic encephalomyelitis (EAE), PLP immunization; assay: Clinical severity of PLP-induced EAE in SWXJ-14 mice; assay type: in vivo
Procedure: FIG. 2. Effect of daily administration of c-PTIO (carboxy-PTIO) on EAE in SWXJ-14 mice. EAE was induced in SWJX-14 mice by two subcutaneous immunizations (d.0 and d.7) of […] PLP in CFA over two injection sites. Mice (N=3) were treated beginning on day 5 post-immunization with 2 mg/mouse c-PTIO […] i.p. and was continued until day 16 post-immunization (day 0 being the day of first immunization). Mean severity scores were graded as detailed in Table 1.
FIG. 4. Effect of D609 on the development of EAE in SWXJ-14 mice. SWXJ-mice were immunized with PLP as detailed for FIG. 2. Mice (n=2) were treated i.p. with 1 mg/mouse D609 from day 5 through day 14 post-immunization. Mean severity scores were graded as detailed in Table 1.
FIG. 12. Effect of the administration of various doses of uric acid on EAE in SWXJ-14 mice. EAE was induced in SWXJ-14 mice by two subcutaneous immunizations (d.0 and 7) of […] PLP in CFA over two injection sites. Mice (n=5) were treated once daily, beginning on day 5 post-immunization, with the indicated doses of uric acid. Mean severity scores were graded as detailed in Table 1.
(§1) Induction of EAE in rats by adoptive transfer of MBP-specific T cells or in SJL or SWXJ-14 mice by immunization with MBP or PLP 139-151, a peptide derived from […] [8], results in variable disease. We have scored the clinical systems of EAE as tabulated below.
(§2) Severity scores and symptoms of Experimental Allergic
(§3) 1 piloerection, tail weakness
(§4) 3 hind limb weakness/paralysis
(§5) 4 hind and forelimb paralysis
(§6) In FIG. 1, EAE was elicited in 11 week old female Lewis rats by the adoptive transfer of 20×10^6 cells of the MBP-specific line 5HGBP.G5 activated by stimulation with MBP and syngeneic APC 48 hours previously and NO levels measured 5 days after transfer. In SWXJ-14 mice, EAE was triggered by two subcutaneous immunizations (d.0 and 7) with 100 μg PLP in CFA over two injection sites, and NO levels measured 18 days later. Results expressed represent the mean values obtained from a minimum of 4 animals. Peak severity of the symptoms of EAE ranged from 2-3 for the rats and 4-5 for the mice. NO was semi-quantitated using spin trapping with DETC and EPR-spectroscopy as described previously.
(§7) Clinical symptoms manifest as an ascending paralysis approximately 13 days after immunization and the disease rapidly progresses to its fatal endpoint by day 16-20. […] NO levels in the brains and spinal cords of animals treated with a single daily dose of PTIO were semi-quantitated by spin trapping and EPR spectroscopy on day 17 after immunization, one day after treatment was terminated. […] We expect that the removal of NO by PTIO should not necessarily interfere with the induction of the response responsible for NO production and that as the supplied PTIO is used up NO levels should rapidly return to control values.
(§8) In contrast to SJL mice, SWX mice immunized with PLP undergo a progressive,often fatal form of EAE. Clinical symptoms manifest as an ascending paralysis approximately 13 days after immunization and the disease rapidly progresses to its fatal endpoint by days 16-20. […] We conclude that the amount of carboxy-PTIO we administered, especially considering the short in vivo half life of the compound, was only sufficient to delay the onset of the EAE in the SWXJ-14 mouse.
NO is not universally considered to be a molecule with significant in vivo toxicity and peroxynitrite is thought to be the more toxic molecule produced by activated inflammatory cells resulting from the interaction of NO and superoxide. We would henceforth expect that removal of NO would reduce peroxynitrite formation. To determine whether NO or peroxynitrite is more likely to be ultimately responsible for clinical disease in EAE we have performed a series of experiments using uric acid, a known scavenger of peroxynitrite, to treat EAE induced in SWXJ-14 mice by immunization with PLP.

nitric oxide (NO) [2] = assay: NO levels in brain and spinal cord of SWXJ-14 mice with EAE (spin trapping with DETC, EPR); assay type: in vivo
Procedure: FIG. 3. Effect of daily administration of c-PTIO on NO levels in the brain and spinal cord of SWXJ-14 mice immunized with PLP. SWXJ-14 mice were immunized as described below for FIG. 1. Beginning 4 days post immunization, mice (n=7) were treated with 2 mg c-PTIO given i.p. until 16 days post-immunization. Mean severity scores were graded as detailed in Table 1. Mean nitric oxide levels in brain and spinal cord were semi-quantitated using spin-trapping with DETC and EPR spectroscopy at 17 days post-immunization as described elsewhere. (For brain or spinal cord results are represented as follows: Left hand column: untreated. Center column: treated with c-PTIO. Right hand column: no EAE control)
FIG. 13. Effect of the administration of uric acid on brain and spinal cord NO levels and the clinical severity of EAE in SWXJ-14 mice. SWXJ-14 mice were immunized with PLP in CFA as described for FIG. 12 and treated once daily with the indicated doses of uric acid i.p. At day 16 post-immunization the animals were euthanized and NO levels in brain and spinal cord assessed as detailed for FIG. 3. Results are for individual mice. Each central white column represents the spinal cord NO level. The black column to the left of a white column represents the clinical severity score. The cross hatched column to the right of a white column represents the brain NO level.
as §6, §7, §8
At 16 days after immunization, several mice from each group were euthanized so that NO levels in their brains and spinal cords could be measured using spin-trapping and EPR spectroscopy.

[3] = test system: experimental allergic encephalomyelitis (EAE), PLP immunization; assay: Survival of SWXJ-14 mice with EAE; assay type: in vivo
Procedure: FIG. 14. Comparison of the survival of SWXJ-14 mice with EAE treated with PTIO and uric acid. SWXJ-mice were immunized with PLP in CFA as described for FIG. 12 and treated once daily with a 2 mg dose of uric acid or PTIO i.p. from day 5 to day 13, followed by two daily doses on day 14 and three daily doses thereafterward.
To more directly compare the action of PTIO and uric acid in EAE we have administered each of these agents in parallel to PLP-immunized SWXJ-14 mice. In these experiments the mice were immunized with PLP and treated with increasing doses of PTIO or uric acid beginning at day 5 after immunization.

A549 cells = assay: Nitrite production by activated A549 cells (Griess reaction); assay type: cell-based, human; conditions: 50 μg/ml; IL-1β, γIFN, TNFα activated
Procedure: FIG. 5. […] The accumulation of nitrite over time was measured in the presence and absence of D609. Human A549 cells were activated with IL-1β (100 units/ml), γIFN (500 units/ml) and TNFα (10 ng/ml), and the accumulation of nitrite over time was measured using the Griess reaction. The concentration of nitrite was calculated using a standard solution of nitrite in culture media.
We have employed the human lung carcinoma cell line A549 (ATCC) and, as for comparison, the mouse monocyte-macrophage cell line RAW 264.7 (ATCC) as producers of NO. Treatment of RAW 264.7 cells with 1 μg/ml of LPS or A549 cells with IL-1β (100 units/ml), γIFN (500 units/ml), and TNFα (10 ng/ml) stimulates the production of NO which can be detected by the accumulation of nitrite in culture supernatants. Using these methods of stimulation, RAW cells produced up to 100 μM of nitrite during 24 hours of culture while the A549 cells generally produced roughly 10 fold less nitrite in our experiments.

iNOS gene [4] = assay: Transcriptional activation of the iNOS gene in A549 cells (gel-shift assays); assay type: cell-based; conditions: 50 μg/ml, human A549 cells
iNOS gene [5] = assay: Transcriptional activation of the iNOS gene in RAW 264.7 cells (gel-shift assays); assay type: cell-based; conditions: 50 μg/ml, mouse RAW 264.7 cells
NF-κB [6] = assay: Activation of transcription factor NF-κB in A549 cells; assay type: cell-based; conditions: 50 μg/ml, human A549 cells
NF-κB [7] = assay: Activation of transcription factor NF-κB in RAW 264.7 cells; assay type: cell-based; conditions: 50 μg/ml, mouse RAW 264.7 cells
[8] = test system: phosphatidylcholine-specific phospholipase C (PC-PLC); conditions: via blocking activation of PC-PLC [16]; cited from earlier work
[9] = test system: experimental allergic encephalomyelitis (EAE), MBP-specific T cell transfer; assay: Clinical severity of adoptive transfer EAE in Lewis rats; assay type: in vivo; conditions: EAE mediated by T cell transfer
From the text: as §1
______________________________________
as §2, §3, §4, §5, §6
Rats were injected i.v. with 20×10^6 MBP-specific CD4 T cells activated in vitro. Two days later the animals were treated with a single dose of either PTIO (20 mg) or a mixture of PTIO (20 mg), indomethacin (1 mg), and allopurinol (13 mg). Treatment was continued on a daily basis until day 4 and animals were sacrificed for NO measurement the following day.

[10] = test system: experimental allergic encephalomyelitis (EAE), immunization-elicited; assay: Clinical severity of immunization-elicited EAE in SJL mice; assay type: in vivo
From the text: as §1, §2, §3, §4, §5
(§9) SJL mice are immunized subcutaneously with pMBP in adjuvant to induce EAE, from which they often recover. Commencing ten days post-immunization, groups of mice (n=6) were treated once daily with 2 mg of either PTIO or carboxy-PTIO intraperitoneally and observed for clinical signs of EAE which were graded as detailed in Table 1. […] At 18 days […], NO determinations were performed in several mice from each group.

nitric oxide (NO) [11] = assay: NO levels in spinal cord and brain of SJL mice with EAE; assay type: in vivo
Procedure: as §9

Water solubility = assay type: physicochemical
[12] = rats, i.v. or i.p., estimated; cited from earlier work
[13] = mice, i.v. or i.p., estimated; cited from earlier work
[14] = day 17 after immunization, one day after treatment ended
[15] = single daily dose of 100 mg/kg, day 17

In the case of `Oc1nc(O)c2[nH]c(O)nc2n1` [uric acid, 2,6,8-trihydroxypurine], the “Mice remaining healthy (FIG. 12)” value ([1]; high dose of uric acid) is reported as “The majority of the mice treated with a high dose of uric acid remained healthy throughout the length of the experiment”, the “Onset and severity of clinical symptoms of EAE (FIG. 12)” value ([1]; uric acid once daily from day 5 post-immunization) is reported as “delays the onset and severity of the clinical symptoms of EAE in these animals in a dose dependent fashion” and the “NO levels in spinal cord and brain (FIG. 13)” value (nitric oxide (NO) [2]; day 16, mice that failed to show symptoms of EAE) is reported as “significant levels of NO were detected in spinal cord and brain”. The “Improvement in clinical signs of surviving mice (FIG. 14)” value ([3]; at termination of the experiment) was “a number were actually beginning to show some improvement in the clinical signs of their disease” and the “Mice still alive (FIG. 14)” value ([3]; several days after day 18, 2 mg i.p. once daily day 5-13, two doses day 14, then three daily) was 80%.

In the case of `S=C(S)OC1CC2CC1C1CCCC21` (stereo not shown) [D609, tricyclodecan-9-yl-xanthogenate], the “Onset of clinical symptoms of EAE (FIG. 4)” value ([1]; 1 mg daily i.p., day 5-14) is reported as “delays the onset of the clinical symptoms of EAE”, the “Nitrite production by A549 cells (FIG. 5)” value (A549 cells) is reported as “completely inhibited nitrite production; also recorded: inhibits nitrite production” and the “Transcriptional activation of the iNOS gene” value (iNOS gene [4]) is reported as “inhibits the transcriptional activation of the iNOS gene”. The “Transcriptional activation of the iNOS gene” value (iNOS gene [5]) was “inhibits the transcriptional activation of the iNOS gene”, the “Activation of transcription factor NF-κB” value (NF-κB [6]) was “inhibits” and the “Activation of transcription factor NF-κB” value (NF-κB [7]) was “inhibits”. For the same compound, the “Induction of iNOS” value [8] was “inhibits the induction of iNOS by blocking the activation of phosphatidylcholine-specific phospholipase C (PC-PLC)”.

With `CC1(C)N([O])C(c2ccc(C(=O)O)cc2)=[N+]([O-])C1(C)C` [carboxy-PTIO, 2-(4-carboxyphenyl)-4,4,5,5-tetramethylimidazoline-1-oxyl-3-oxide] the “Treatment of EAE mediated by T cell transfer” value [9] was “successfully treated”, the “Onset and severity of EAE (FIG. 7)” value ([10]; 2 mg once daily i.p. from day 10 post-immunization, n=6) was “delayed onset of disease and somewhat lessened severity by comparison with untreated animals” and the “Clinical symptoms of EAE” value ([10]; SJL mice, i.p. administration) was “forestall the appearance of clinical symptoms of EAE”. The Clinical severity ([10]; SJL mouse - immunization EAE, severity score 1-5, Table 2) was 0.7, the “Brain NO increase (FIG. 8)” value (nitric oxide (NO) [11]; 2 mg once daily i.p., day 18) was “also inhibited” and the “NO levels in spinal cord (FIG. 8)” value (nitric oxide (NO) [11]; 2 mg once daily i.p., day 18) was “lower in the spinal cords”. For the same compound, the “Levels of NO in spinal cord” value (nitric oxide (NO) [11]; SJL mice, i.p. administration) was “reduce levels of NO detected in spinal cord”, the NO-spinal cord (nitric oxide (NO) [11]; SJL mouse - immunization EAE, Table 2) was 1.4 mM and the “Overall NO production and therapeutic effect in SWXJ-14 mice” value ([1]; carboxy-PTIO administration) was “limited NO production to the spinal cord and had a clear therapeutic effect”. For the same compound, the “Onset and severity of clinical symptoms of EAE (FIG. 9)” value ([1]; single daily dose of 100 mg/kg) was “delays the onset and reduces the severity of the clinical symptoms of EAE”, the “Onset and severity of clinical symptoms of EAE (FIG. 2)” value ([1]; two daily doses of 100 mg/kg) was “delays the onset and reduces the severity of the clinical symptoms of EAE” and the “Clinical course of EAE (FIG. 11)” value ([1]; two daily doses of approximately 2 mg) was “dramatically improves the clinical course of EAE by comparison with a single daily dose”. The “NO levels in brain (FIG. 3)” value (nitric oxide (NO) [2]; [14]) was “low levels of NO in brain tissue compared to untreated PLP-immunized controls”, the “NO levels in spinal cord (FIG. 3)” value (nitric oxide (NO) [2]; [14]) was “somewhat less than the spinal cord NO levels detected in the surviving untreated animals” and the “NO induction in brain (FIG. 10)” value (nitric oxide (NO) [2]; [15]) was “prevented the induction of NO in brain”. The “NO levels in spinal cord (FIG. 10)” value (nitric oxide (NO) [2]; [15]) was “somewhat less than the spinal cord NO levels detected in the surviving untreated animals”, the Water solubility (Water solubility) was “water soluble” and the “Biological half-life in blood” value [12] was “less than five”. For the same compound, the “Biological half-life in blood” value [13] was “less than five”.
